# Results reported in patent US5124327A, “HIV reverse transcriptase” (Merck & Co., Inc., priority 1991, dated 1992).
# Experiments:
# [1] = target: T1, recombinant HIV reverse transcriptase (HIV RTR) (Human immunodeficiency virus type 1 group M subtype B, UniProt P04585); assay: Reverse transcriptase assay: incorporation of tritiated dGMP into acid-precipitable cDNA; type: biochemical
# T1 construct: recombinant HIV reverse transcriptase (HIV RTR)
# Procedure: The assay measures the incorporation of tritiated deoxyguanosine monophosphate by recombinant HIV reverse transcriptase (HIV RTR) (or other RT) into acid-precipitable cDNA at the Km values of dGTP and poly r(C).oligo d(G)12-18.
# Thirty uL of a reaction mixture containing equal volumes of: 500 mM Tris.HCl (pH 8.2), 300 mM MgCl2, 1200 mM KCl, 10 mM DTT, 400 μg/mL poly r(c).oligo d(G) [prepared by dissolving 1.5 mg (25 U) poly r(C).oligo d(G) in 1.5 ml sterile distilled H2 O and diluting to 400 μg/ml], 0.1 μCi/μl [^3 H] dGTP, 160 μM dGTP, was added to 10 μl sterile distilled H2 O, 2.5 μl of potential inhibitor and 10 μL of 5 nM purified HIV RTR in tubes. The mixture was incubated at 37° C. for 45 minutes.
# After incubation is complete, the tubes were cooled in ice for 5 minutes. Ice-cold 13% TCA containing 10 mM NaPPi (200 μl) are added and the mixture incubated on ice for 30 minutes. The precipitated cDNA is removed by filtration using presoaked glass filters [TCA, NaPPi ]. The precipitate is then washed with 1N HCl, 10 mM NaPPi. The filter discs are then counted in a scintillation counter.
# Under these conditions [dGTP] and poly r(C).oligo d(G)12-18 each are approximately equal to the appropriate Km value. Approximately 5-6,000 cpm of [^3 H] GMP are incorporated into acid-precipitable material. The RT reaction is concentration- and time-dependent. […]
# [2] = test system: HIV-1 strain IIIb; assay: Inhibition of virus spread in HIV-infected MT-4 cells (p24 antigen); type: cell-based; conditions: Human immunodeficiency virus 1, IIIB, MT4, 72 h, concentration giving greater than 95% reduction in p24 antigen production relative to untreated controls, 3 days incubation, read-out: cell culture inhibitory concentration (CIC95)
# Procedure: MT cells were infected at Day O at a concentration of 250,000 per ml with a 1:2000 dilution of HIV-1 strain IIIb stock (final 125 pg p24/ml; sufficient to yield ≤1% infected cells on day 1 and 25-100% on day 4). Cells were infected and grown in the following medium: RPMI 1640 (Whittaker BioProducts), 10% inactivated fetal bovine serum, 4 mM glutamine (Gibco Labs) and 1:100 Penicillin-Streptomycin (Gibco Labs).
# The mixture was incubated overnight at 37° C. in 5% CO2 atmosphere.
# Serial two-fold dilutions of compound were prepared in cell culture medium. At Day 1, aliquots of 125 μl of compound were added to equal volumes of HIV-infected MT-4 cells (50,000 per well) in a 96-well microtiter cell culture plate. Incubation was continued for 3 days at 37° C. in 5% CO2 atmosphere.
# Using a multichannel pipettor, the settled cells were resuspended and a 125 μl harvested into a separate microtiter plate. […]
# The concentration of HIV p24 antigen was measured by an enzyme immunoassay,described as follows. Aliquots of p24 antigen to be measured were added to microwells coated with a monoclonal antibody specific for HIV core antigen. […]
# The cell culture inhibitory concentration (ClC95) for each compound is defined as that concentration which inhibited by greater than 95% the spread of infection, as assessed by a greater than 95% reduction in p24 antigen production relative to untreated controls.
smiles,measurement,setting,value
"[O-][S+](Cc1[nH]c2ccccc2c1Sc1ccccc1)c1ccccc1 (stereo not drawn) [compound A, 2-Phenylsulfinylmethyl-3-phenylthioindole]",IC50,"[1]; [dGTP] and poly r(C).oligo d(G)12-18 at approximately Km, 37° C., 45 minutes, read-out: calculated IC50",~60 nM
same,incorporation of tritiated deoxyguanosine monophosphate into acid-precipitable cDNA,[1]; at the Km values of dGTP and poly r(C).oligo d(G)12-18,inhibits this incorporation
same,IC95,[2],~100 nM
